Data: US20060128736A1, “Camptothecin-carboxylate formulations” (priority 2002, published 2006)

Tests used:
[1] = Fluorescence anisotropy of CPT in lipid suspensions; type: physicochemical; conditions: 10 mM Tris-buffer pH 7.5, 10% trehalose
Excerpt: These finding are corroborated by fluorescence anisotropy measurements of the CPT. In this experiment, an increase of the fluorescence anisotropy is expected if the fluorophore is inserted into a liposome and thus its mobility is decreased. […] DOTAP and DOPC both comprise unsaturated fatty acid chains, but DOTAP is positively charged while DOPC is neutral.
For efficient binding, in addition to charge, the phase state of the fatty acid chains is important. […] DOTAP has its main phase transition (Tm) near 37° C. […] Below that temperature the fatty acid chains are in the gel phase (a crystalline like state) and above they are in the liquid crystalline (fluid-like) state.
FIG. 9: Fluorescence anisotropy measurements of CPT in lipid suspensions from DOTAP and DOPC and as prepared by different methods. […]
FIG. 10: Comparison of fluorescence anisotropy measurements with DOTAP and DMTAP Measurements with CPT and with 10-OH-CPT are shown. […]
In order to get further information on the CPT-lipid interaction form an independent method, fluorescence anisotropy measurements were performed. […] The fluorescence anisotropy was taken as a measure for the binding strength of CPT to the liposome. […]
Fluorescence anisotropy measurements from liposomes with two different cationic lipids, DOTAP and DMTAP, and two different CPT drugs (CPT and 10-OH-CPT) are compared. […]

A-375 melanoma [2] = assay: Therapeutic efficacy of LipoCam IV and VI in A-375 melanoma of nude mice (FIG. 13); type: in vivo, NMRI-nude mice; conditions: 1 and 2 mg/kg iv three times a week for three weeks
Procedure: (§1) NMRI-nude mice were purchased from Elevage Janvier and housed in isolated ventilated cages under save environmental conditions (SPF facility, 22° C., 30-70% humidity, 12 h light/dark cycle) with food and water ad libitum. Experimental design was reviewed and approved by local government.
(§2) Tumor cells (A-375 human melanoma cell line, ATCC Nr.: CRL-1619) were grown as described in the data sheet supplied by ATCC. Tumor cells (5×10^6 in PBS) were inoculated s.c. in the right dorsal flank of mice in a volume of 50 μl on day 0.
Mice were assigned to the experimental groups (8 animals per cage), housed and handled (including monitoring of the body weight gain) at least five days before tumor inoculation (=day −6 to 0). […] Toxicity was evaluated based on hematological parameters, body weight and animal clinical observations. […]
Animals were clinically monitored during the whole experiment, monitoring of tumor size was performed three times a week. The tumor dimensions were measured by caliper and the tumor size was calculated according to the following formula: V=πL W^2/6 (L=greatest length, W=width of perpendicular axis). The body weight of individual animals was monitored at least twice during handling period, after tumor inoculation and after start of treatment. […] The number of red and white blood cells and platelets were determined using an automated cell counter (Abbott Cell Dyn 3500).

A-375 melanoma [3] = assay: Therapeutic efficacy of LipoCam in A-375 melanoma of nude mice (FIG. 12); type: in vivo, NMRI-nude mice; conditions: iv three times a week for three weeks at equitoxic doses, start at about 100 mm^3
Procedure: as §1, §2
Mice were assigned to the experimental groups (8 animals per cage), housed and handled (including monitoring of the body weight gain) at least five days before tumor inoculation (=day −6 to 0). […] Equitoxic doses of the compounds were determined in separate experiments, where toxicity was evaluated based on haematological parameters, body weight and animal clinical observations (see Tab. 3). […] Animals were clinically monitored during the whole experiment, monitoring of tumor size was performed three times a week. The tumor dimensions were measured by caliper and the tumor size was calculated according to the following formula: V=πL W^2/6 (L=greatest length, W=width of perpendicular axis). The body weight of individual animals was monitored at least twice during handling period, after tumor inoculation and after start of treatment. […]

| SMILES | Fluorescence anisotropy (measure of binding strength of CPT to the liposome) [1] | Order of antitumor efficacy (A-375 melanoma [2]) | Anti-tumor effect (tumor volume) (A-375 melanoma [3]) |
| --- | --- | --- | --- |
| CCC(O)(C(=O)O)c1cc2n(c(=O)c1CO)Cc1cc3ccccc3nc1-2 (stereo not shown) [CPT-carboxylate] | zero | LipoCam IV (2 mg/kg)>LipoCam VI (1 mg/kg)>CPT-carboxylate (2 mg/kg)>CPT-carboxylate (1 mg/kg) | – |
| CC[C@@](O)(C(=O)[O-])c1cc2n(c(=O)c1CO)Cc1cc3ccccc3nc1-2.[Na+] [CPT-Na-Carboxylate] | – | – | only a retardation |
| CC[C@@]1(O)C(=O)OCc2c1cc1n(c2=O)Cc2cc3cc(O)ccc3nc2-1 [Formulation 10-OH-CPT, 10-Hydroxy-camptothecin] | higher binding efficacy | – | – |
